Assay results published in PMC11477294, “In Vitro Profiling of the Antiviral Peptide TAT-I24” (International Journal of Molecular Sciences, 2024).
Where a SMILES comes first, the peptide text is derived from it. Bridges are numbered along the chain shown (N, C = ends).

Legend:
[1] = system: baculovirus expressing luciferase under the control of the CMV promoter; assay type: cell-based; settings: luciferase reporter gene expression in HEK293 cells transduced with baculovirus-luc, MOI 5, 24 h post-infection; 1:3 peptide dilution series; non-linear regression; n = 8
Description: A baculovirus expressing luciferase under the control of the CMV promoter has been described previously. HEK293 cells were seeded at a density of 2 × 10^4 cells/100 µL per well in 96-well plates (Sarstedt, Germany). On the next day, cells were treated with a 1:3 dilution series of peptides and, without further pre-incubation, subsequently infected with baculovirus–luc at a multiplicity of infection (MOI) of 5. Cells were lysed 24 h post-infection using 20 µL Cell Culture Lysis Reagent (Promega, Mannheim, Germany). From the lysates, 10 µL was transferred to white 96-well plates, and luciferase was recorded using a luciferase assay system and a GloMax®-Multi Detection System (Promega, Mannheim, Germany).

[2] = system: MCMV strain delm157-luc rep; assay type: cell-based, mouse cytomegalovirus; settings: luciferase reporter gene expression in NIH/3T3 cells infected with replication-competent MCMV, MOI 0.5, 72 h post-infection; 1:3 dilution series; non-linear regression; n = 9
Description: NIH/3T3 cells were seeded at a density of 2 × 10^4 cells/100 µL per well in a 96-well plate (Sarstedt, Germany) and allowed to attach overnight. On the next day, cells were treated with a 1:3 dilutions series of peptides and, without further pre-incubation, subsequently infected with the MCMV strain delm157-luc rep. The MCMV stock was prepared and quantified as previously described. The virus (MOI 0.5 for luc assays; for other assays, see the specific descriptions) was adsorbed to cells with the aid of centrifugal enhancement twice at 800× g for 15 min at room temperature and incubated at 37 °C for the indicated times. For the luciferase assays, the infected cells were lysed 72 h post-infection using 20 µL Cell Culture Lysis Reagent (Promega, Mannheim, Germany). From the lysates, 10 µL was transferred to white 96-well plates, and luciferase was recorded using a Luciferase Assay System and a GloMax®-Multi Detection System (Promega, Mannheim, Germany).

[3] = system: human red blood cells (RBCs); test: Hemolysis assay with red blood cells; assay type: cell-based; settings: 1 h at 37 °C; for hemolysis of human RBCs: peptide dilutions in PBS or PBS + 10% donor serum, concentrations < 20 µM (1:2 dilutions), OD 450 nm of supernatants, n = 6; for swelling of RBCs (pellet size after centrifugation): peptide dilutions prepared in PBS, up to 20 µM
Description: Blood from healthy volunteers was collected by venipuncture (Greiner Bio-One, Kremsmünster, Austria) into K2E K2EDTA VacuetteTM tubes (Greiner Bio-One, Kremsmünster, Austria) with 4 mL blood. The assay for hemolysis was adapted from Sæbo et al.. Blood was centrifuged at 1000× g for 10 min, and plasma was kept for further use. Red blood cells were then resuspended in 10 mL PBS and centrifuged again at 1000× g for a total of three times. Cells were then counted using a hemocytometer and seeded at a cell number of 1 × 10^7 cells/100 µL PBS per well in conical 96-well plates (ThermoFisher, Darmstadt, Germany). Next, 1:2 peptide dilutions starting from 40 µM either in PBS or 10% donor serum were prepared, and 100 µL was added to 100 µL of RBC. Plates were then incubated for one hour at 37 °C. As the positive control, three wells with 100 µL RBCs were treated with 100 µL PBS + 0.5% Triton X-100. After incubation, plates were centrifuged at 1000× g for 5 min and supernatants were transferred to flat 96-well plates. Optical density (OD) was determined at 450 nm using a GloMax®-Multi Detection System (Promega, Mannheim, Germany). Images from RBCs from light microscopy and centrifuged plates were taken using an iPhone 12 mini.

HEK293 cells = test: Cell viability assay (CellTiter-Blue) in HEK293 cells; assay type: cell-based; settings: 72 h at 37 °C, 3-fold dilution series starting with 20 µM, triplicate, non-linear regression (curve fit)
Description: HEK293 cells were seeded at a density of 2.5 × 10^3 cells/100 µL per well in a 96-well plate (Sarstedt, Germany). In addition, a serial 1:2 dilution of the cell suspension was added to each plate to generate a standard curve. On the next day, cells were treated with serial 1:3 peptide dilutions in triplicate and incubated for 72 h at 37 °C. Then, 20 µL of CellTiter-Blue® Cell Viability Assay (Promega, Mannheim, Germany) was added to each well and incubated at 37 °C for a further 1–2 h. Fluorescence was recorded using a GloMax®-Multi Detection System (Promega, Mannheim, Germany). The percentage of viable cells was calculated from the cell dilution series from each plate by linear regression analysis. The selectivity index was calculated using the following formula: SI = CC50/IC50.
Figure S1. Cell viability assay in HEK293 cells in the presence of peptides. Cells were incubated with 3 -fold dilution series of peptides starting with a concentration of 20 µM for 72 hours and measured using the Cell Titer Blue assay. Curve fitting of % viable cells of untrea ted control was performed using Graph Pad Prism softwar e.
(1 picture or pasted object on this page, not shown here)

| SMILES | IC50 [1] | IC50 [2] | hemolysis of human RBCs [3] | swelling of RBCs (pellet size after centrifugation) [3] | HEK293 CC50 (HEK293 cells) |
| --- | --- | --- | --- | --- | --- |
| CC(C)C[C@@H]1NC(=O)[C@@H](NC(=O)[C@H](CCC(N)=O)NC(=O)[C@@H]2CCCN2C(=O)[C@@H]2CCCN2C(=O)[C@H](CCCNC(=N)N)NC(=O)[C@H](CCCNC(=N)N)NC(=O)[C@H](CCCNC(=N)N)NC(=O)[C@H](CCC(N)=O)NC(=O)[C@H](CCCNC(=N)N)NC(=O)[C@H](CCCNC(=N)N)NC(=O)[C@H](CCCCN)NC(=O)[C@H](CCCCN)NC(=O)[C@H](CCCNC(=N)N)NC(=O)CN)CSSC[C@@H](C(=O)N[C@@H](Cc2ccccc2)C(=O)O)NC(=O)[C@H](C)NC(=O)[C@H](Cc2ccc(O)cc2)NC(=O)[C@H](Cc2ccccc2)NC(=O)[C@H](C)NC1=O [C22del_cyc] (H-GRKKRRQRRRPPQCLAFYACF-OH; disulfide 14-20) | 1.41 µM | 12.2 µM | neither induce hemolysis | reduced swelling | – |
| CSCC[C@H](NC(=O)[C@H](Cc1ccccc1)NC(=O)[C@H](CCCNC(=N)N)NC(=O)[C@H](C)NC(=O)[C@H](Cc1ccc(O)cc1)NC(=O)[C@H](Cc1ccccc1)NC(=O)[C@H](C)NC(=O)[C@H](CC(C)C)NC(=O)[C@H](C)NC(=O)[C@H](CCC(N)=O)NC(=O)[C@@H]1CCCN1C(=O)[C@@H]1CCCN1C(=O)[C@H](CCCNC(=N)N)NC(=O)[C@H](CCCNC(=N)N)NC(=O)[C@H](CCCNC(=N)N)NC(=O)[C@H](CCC(N)=O)NC(=O)[C@H](CCCNC(=N)N)NC(=O)[C@H](CCCNC(=N)N)NC(=O)[C@H](CCCCN)NC(=O)[C@H](CCCCN)NC(=O)[C@H](CCCNC(=N)N)NC(=O)CN)C(=O)O [C14A, C20R, C22M] (H-GRKKRRQRRRPPQALAFYARFM-OH) | 0.58 µM | 3.59 µM | neither induce hemolysis | reduced swelling | 63 µM |
